Results as given in patent US20090043378A1, “Biocompatible Polymer System for Extended Drug Release” (priority 2007, published 2009).
Values after ≈ are worked out from the molar mass of the structure shown.

What was measured:
[1] = physchem; assay type: physicochemical
Description: The hydrophobicity of zotarolimus enhances its absorption across the cellular membrane leading to inhibition of neointimal proliferation of the target tissues.

[2] = Octanol-water partition coefficient of zotarolimus; assay type: physicochemical
Description: In one embodiment, the drug is zotarolimus (Formula 1) ([…], molecular weight=966.5 g/mol), a tetrazole-containing macrocyclic immunosuppressant. […] The mechanism of action of zotarolimus is binding to FKBP12, leading to the formation of a trimeric complex with the protein kinase mTOR (mammalian target of rapamycin) thereby inhibiting its activity. Inhibition of mTOR results in the inhibition of protein phosphorylation events associated with translation of mRNA and cell cycle control.

[3] = tested on: Monocytic U937 cells; experiment: Monocyte adhesion to polymer coated wells (calcein uptake); assay type: cell-based
Description: Monocytic U937 cells were purchased from ATCC Cell Biology Collection and maintained in culture according to vendor recommendations. U937 cells were seeded at 1×10^5/well onto polymer coated 96 well plates. The cells were stimulated with lipopolysaccharide (LPS) (100 ng/mL) and phorbol-12-myristate-13-acetate (PMA) (100 ng/mL) to induce differentiation and inflammatory activation. […] Adhesion of U937 cells to the polymer scaffold was assessed by calcein uptake as detailed in the following protocol. U937 cells were fluorescently labeled by incubation with calcein (1 mg/mL) for 30 minutes. Calcein is a fluorescent dye hydrolyzed by esterases in viable cells. The percent uptake of calcein is directly proportional to the number of viable cells in the well. The percent of cell adhesion was determined by reading the fluorescent measurements prior to and after gentle PBS washing of the adherent monocytes from the polymer coated plates. […] To calculate the relative percent adhesion, the ratio between the fluorescent measurement prior to and after gentle PBS washing of the adherent monocytes from the polymer coated plates was first determined. […]
In order to evaluate, in vitro, the polymers potential to elicit an inflammatory response, the adhesion of activated monocytes to the components of various polymers were measured, individually and in combination (C10, C19, and C10/C19).

| Compound | solubility ([1]; pH 6.5, aqueous buffer) | solubility ([1]; pH 7.4, aqueous buffer) | octanol-water partition coefficient ([2]; pH 6.5) | octanol-water partition coefficient ([2]; pH 7.4) | monocyte adherence, fold induction over non-stimulated, negative control cells [3] |
| --- | --- | --- | --- | --- | --- |
| CO[C@H]1C[C@@H]2CC[C@@H](C)[C@@](O)(O2)C(=O)C(=O)N2CCCC[C@H]2C(=O)O[C@H]([C@H](C)C[C@@H]2CC[C@H](n3cnnn3)[C@H](OC)C2)CC(=O)[C@H](C)/C=C(\C)[C@@H](O)[C@@H](OC)C(=O)[C@H](C)C[C@H](C)/C=C/C=C/C=C/1C [zotarolimus] | 0.47 µg/mL (≈ 0.486 µM) | 0.53 µg/mL (≈ 0.549 µM) | > 4.5 | > 4.5 | – |
| Poly(butyl methacrylate) [PBMA] | – | – | – | – | 12.6 fold |
